The text below walks through data of the Bradley open melting point set (2014).

Turning to `c1ccc2nc3ccccc3nc2c1` [phenazine], the melting point worked out at 176 °C.
Under `CSCC[C@H](NC(C)=O)C(=O)O` [N-Acetylmethionine] stands 106 °C; under `COc1cc(C=O)ccc1O` [4-Hydroxy-3-methoxybenzaldehyde], 82 °C; under `CC12CCC3C(CCC4CCCCC43C)C1CC(=O)C2` (centres undefined) [androstan-16-one], 108 °C.
In the case of `Nc1ccc(S(=O)(=O)Nc2ccccn2)cc1` [sulfapyridine], the melting point stood at 192 °C.
In turn, `C1CCOC1` [tetrahydrofuran] had a melting point of -108 °C.
`Cc1ccc(C(N)=O)cc1` [p-toluamide] returned a melting point of 163 °C.
Consider `CCCCCCCc1ccc(C(=O)O)cc1` [4-Heptylbenzoic acid], for which the melting point stood at 69.8 °C.
Take `Cc1nccn1CC1CCc2c(c3ccccc3n2C)C1=O` (centres undefined) [ondansetron]: the melting point came to 231 °C.
The compound `O=[N+]([O-])c1ccc(NS(=O)(=O)c2ccccc2)cc1` [4-nitro-1-phenylsulfonamidobenzene] came in with a melting point of 138 °C.
`O=C(O)c1ccc2c(c1)OCO2` [piperonylic acid] displayed a melting point of 233 °C.
Take `O=C(Nc1ccc(/C=C/c2ccc(NC(=O)c3ccccc3)cc2)cc1)c1ccccc1` [N,N'-[(E)-ethene-1,2-diyldibenzene-4,1-diyl]dibenzamide]: the melting point turned out to be 253 °C.
On to `Sc1nc2ccccc2[nH]1` [2-mercaptobenzimidazole], for which the melting point stood at 303 °C.
The compound `COC(=O)c1ccc2[nH]nnc2c1` [methyl 1h-benzotriazole-5-carboxylate] gave a melting point of 174 °C.
`CC(=O)c1ccc(Br)cc1` [p-bromoacetophenone] gave a melting point of 51 °C.
`O=Cc1ccc(O)cc1O` [2,4-Dihydroxybenzaldehyde] showed a melting point of 136 °C.
With `CCCCCCCCCCC(=O)O` [Undecanoic acid], the melting point turned out to be 28.5 °C.
For the compound `C=CC(=O)OCC(CC)CCCC` (centres undefined) [2-ethylhexyl acrylate], the melting point is -90 °C.
`FC(F)(F)c1ccccc1` [(Trifluoromethyl)benzene] came in with a melting point of -27 °C.
Consider `O=C(O)c1ccccc1Cl` [2-chlorobenzoic acid], for which the melting point is 140 °C.
`O=C(Oc1ccccc1)c1ccccc1` [phenyl benzoate] came in with a melting point of 69 °C.
On to `C1CCSC1` [Tetrahydrothiophene], for which the melting point was -96 °C.
`O=C(O)c1cc(O)ccc1O` [gentisic acid] displayed a melting point of 205 °C.
Turning to `CCOC(=O)c1ccccc1O` [ethyl salicylate], the melting point worked out at 1 °C.
As to `FC(F)(F)c1ccc(P(c2ccc(C(F)(F)F)cc2)c2ccc(C(F)(F)F)cc2)cc1` [tris[4-(trifluoromethyl)phenyl]phosphine], the melting point stood at 74 °C.
In turn, `Oc1ccccc1-c1ccccc1` [Biphenyl-2-ol] gave a melting point of 57 °C.
On to `CC1CO1` (centres undefined) [propylene oxide], for which the melting point was -112 °C.
On to `Nc1ccccc1CCc1ccccc1N` [2,2'-Ethane-1,2-diyldianiline], for which the melting point amounted to 33 °C.
Compound `Nc1ccc(C(F)(F)F)cc1` [4-(trifluoromethyl)aniline] came in with a melting point of 7 °C.
Consider `CCCCCCCCS` [1-octanethiol], for which the melting point was -49 °C.
With `O=[N+]([O-])c1cc([N+](=O)[O-])c(F)cc1F` [1,5-difluoro-2,4-dinitrobenzene], the melting point was determined as 74 °C.
`O=C(O)c1ccc2c(c1)C(=O)OC2=O` [1,2,4-benzenetricarboxylic anhydride] displayed a melting point of 167 °C.
Compound `O=C1NC(=O)c2ccccc21` [phthalimide] displayed a melting point of 234 °C.
`CCO` [ethanol] came in with a melting point of -114 °C.
In the case of `COc1cccc(P(c2cccc(OC)c2)c2cccc(OC)c2)c1` [tris(3-methoxyphenyl)phosphine], the melting point came to 114 °C.
Next, `Cc1ccc(O)cc1` [p-cresol]: 33 °C.
Regarding `CCCCCCC` [N-heptane], the melting point was -91 °C.
In turn, `Cc1ccc(C=O)cc1` [p-tolualdehyde] yielded a melting point of -6 °C.
Next, `Nc1ccc(N)nc1` [2,5-diaminopyridine]: 96 °C.
Next, `CC(Br)C(C)(C)C` (centres undefined) [2-bromo-3,3-dimethylbutane]: 25 °C.
The compound `OB(O)c1c(F)cc(F)cc1F` [2,4,6-trifluorobenzeneboronic acid] came in with a melting point of 235 °C.
As for `O=C(O)c1ccccc1Br` [2-Bromobenzoic acid], the melting point turned out to be 149 °C.
Compound `ClC1=C(Cl)C2(Cl)C3C(Cl)C(Cl)CC3C1(Cl)C2(Cl)Cl` (stereo not drawn) [trans-Chlordane] displayed a melting point of 106 °C.
Regarding `O=C1CN(/N=C/c2ccc([N+](=O)[O-])o2)C(=O)N1` [nitrofurantoin], the melting point amounted to 263 °C.
For `COc1ccc(N=C(CNc2ccc(OC)cc2)Nc2ccc(OC)cc2)cc1`, the melting point worked out at 159 °C.
Turning to `C=CC(=O)O` [Acrylic Acid], the melting point was 13.5 °C.
Consider `O=C(c1ccccc1)c1cccc(Cl)c1` [3-chlorobenzophenone], for which the melting point was determined as 83 °C.
Next, `Nc1nc(=O)c2ncn(COCCO)c2[nH]1` [Aciclovir]: 257 °C; `Cc1cccc(N)c1N` [2,3-diaminotoluene]: 58 °C.
Under `Cc1cc(B(O)O)cnc1Cl` [6-chloro-5-methylpyridine-3-boronic acid] stands 182 °C; under `COC1(OC)CCC2(C)C(CCC3C4CCCC4(C)CCC32)C1` (centres undefined) [3,3-dimethoxyandrostane], 80 °C.
Compound `FC(F)(F)c1ccc(Br)nc1` [2-bromo-5-(trifluoromethyl)pyridine] showed a melting point of 46 °C.
As to `COc1ccc(OC)cc1` [1,4-Dimethoxybenzene], the melting point stood at 58 °C.
The compound `NC(N)=Nc1nc(CSCCC(N)=N[S+2](N)([O-])[O-])cs1` yielded a melting point of 163 °C.
For the compound `C1CCCCCCCCCCC1` [cyclododecane], the melting point turned out to be 61 °C.
`CCCCCCC#N` [heptanenitrile] came in with a melting point of -64 °C.
For `Nc1ccc(-c2ccccc2)cc1` [4-aminobiphenyl], the melting point turned out to be 54 °C.
In turn, `OCCCCCCCCCCc1ccccc1` [10-phenyl-1-decanol] returned a melting point of 36 °C.
As for `CCCCCCCCCCCCC(=O)O` [N-Tridecanoic Acid], the melting point was found to be 44.5 °C.
Under `NCCCCCCO` [6-amino-1-hexanol] stands 57 °C; under `CC(C)=NO` [acetone oxime], 62 °C.
On to `O=C(O)Cc1ccccc1Cl` [2-chlorophenylacetic acid], for which the melting point amounted to 96 °C.
`Cc1cccc(C)c1[N+](=O)[O-]` [2-nitro-1,3-dimethylbenzene]: the melting point is 16 °C.
`BrC(Br)Br` [bromoform] showed a melting point of 9 °C.
`Oc1ccccc1C=Nc1ccccc1` [salicylideneaniline] had a melting point of 51 °C.
Compound `Cc1ccc2sc(C)nc2c1` [2,5-dimethylbenzothiazole] showed a melting point of 40 °C.
Compound `C1OCOCO1` [1,3,5-trioxane] came in with a melting point of 61 °C.
In turn, `N#Cc1ccc([N+](=O)[O-])cc1Cl` [2-chloro-4-nitrobenzonitrile] yielded a melting point of 80 °C.
Under `COc1cc(O)c2c(=O)c(OC3OC(CO)C(O)C(O)C3OC3OC(C)C(O)C(O)C3O)c(-c3ccc(O)c(O)c3)oc2c1` (centres undefined) stands 187 °C; under `Cc1c(Cl)cccc1[N+](=O)[O-]` [2-chloro-6-nitrotoluene], 36 °C; under `CC1(CO)NC(C(=O)O)CC2c3ccccc3NC21` (centres undefined), 260 °C.
In the case of `CCCOC(C)=O` [Propyl acetate], the melting point was -95 °C.
As for `COC(=O)CCC(=O)OC` [dimethyl succinate], the melting point is 19 °C.
Consider `Cn1c(=O)c2c(ncn2C)n(C)c1=O` [caffeine], for which the melting point was 238 °C.
Compound `N#Cc1ccc2[nH]ccc2c1` [indole-5-carbonitrile] showed a melting point of 106 °C.
With `O=[N+]([O-])c1cccc(N=C=S)c1` [3-nitrophenyl isothiocyanate], the melting point amounted to 57 °C.
The compound `CC(C)(C)c1cc(O)c(C(C)(C)C)cc1O` [2,5-Di-tert-butylbenzene-1,4-diol] showed a melting point of 218 °C.
The compound `Oc1c(Cl)cc(Cl)c2cccnc12` [5,7-dichloro-8-hydroxyquinoline] registered a melting point of 181 °C.
`Cc1ccc(N)c(Br)c1` [2-bromo-4-methylaniline] registered a melting point of 15 °C.
For the compound `Brc1ccc(Br)cc1` [p-dibromobenzene], the melting point is 88 °C.
Regarding `C=CC(=O)OCC` [Ethyl acrylate], the melting point was -71 °C.
With `Oc1ccccc1O` [catechol], the melting point worked out at 105 °C.
Next, `O=C(O)c1ccc(C(F)(F)F)cc1F` [2-fluoro-4-(trifluoromethyl)benzoic acid]: 168 °C.
For the compound `Cc1cccc2c1-c1nc3ccccc3nc1-2` [1-methylbenzo[3,4]cyclobuta[1,2-b]quinoxaline], the melting point turned out to be 135 °C.
In the case of `CCCCCCCCI` [1-iodooctane], the melting point was -44 °C.
As for `CC(C)Cn1cnc2c(N)nc3ccccc3c21` [Imiquimod], the melting point is 293 °C.
`Nc1nc(-c2ccc(Br)cc2)cs1` [2-amino-4-(4-bromophenyl)thiazole] registered a melting point of 184 °C.
With `CC(C)(C)OC(=O)N[C@H](Cc1cccc(F)c1)C(=O)O` [N-boc-3-fluoro-d-phenylalanine], the melting point came to 77 °C.
As to `C=C(C)C=O` [methacrolein], the melting point was -81 °C.
As for `O=C(Nc1ccccc1)OC1C=CC=CCC1OC(=O)Nc1ccccc1` (centres undefined) [cyclohepta-3,5-diene-1,2-diyl bis(phenylcarbamate)], the melting point is 135 °C.
`O=C1C=CC(=O)O1` [maleic anhydride] registered a melting point of 54 °C.
With `COc1ccc(N)c(OC)c1` [2,4-dimethoxyaniline], the melting point stood at 35 °C.
Turning to `CC1COc2c(N3CCN(C)CC3)c(F)cc3c(=O)c(C(=O)O)cn1c23` (centres undefined) [Ofloxacin], the melting point stood at 254 °C.
Consider `O=C1Cc2ccccc2C(=O)O1` [Homophthalic acid anhydride], for which the melting point is 143 °C.

By melting point is commonly meant the temperature of the solid-liquid transition.
